Test results as given in the NIST ThermoML archive (doi:10.1007/s10765-010-0766-0).
± gives the expanded uncertainty stated by the source.

Assay: wn = mass fraction of the nth substance listed
Details: Liquid, Pycnometric method, w2 = 0.4981

FC(F)C(F)(F)F [pentafluoroethane] + FCF
Details | mass density [kg/m3]
332.15 K, 7002 kPa | 921.1 ± 3.4
333.15 K, 7333 kPa | 920.9 ± 4
333.15 K, 7355 kPa | 921 ± 1.6
333.15 K, 7370 kPa | 921.1 ± 4
334.15 K, 7700 kPa | 920.8 ± 3.1
334.15 K, 7723 kPa | 920.9 ± 1.5
334.15 K, 7736 kPa | 921 ± 3.1
335.15 K, 8069 kPa | 920.7 ± 2.6
335.15 K, 8090 kPa | 920.8 ± 1.5
335.15 K, 8104 kPa | 920.9 ± 2.6
336.15 K, 8438 kPa | 920.7 ± 5.4
336.15 K, 8457 kPa | 920.7 ± 1.6
336.15 K, 8472 kPa | 920.8 ± 5.4
337.15 K, 8807 kPa | 920.6 ± 6.1
337.15 K, 8826 kPa | 920.6 ± 1.5
337.15 K, 8840 kPa | 920.8 ± 6.1
338.15 K, 9176 kPa | 920.5 ± 2.2
338.15 K, 9194 kPa | 920.5 ± 1.5
338.15 K, 9209 kPa | 920.7 ± 2.2
339.15 K, 9546 kPa | 920.4 ± 5.8
339.15 K, 9563 kPa | 920.4 ± 1.5
339.15 K, 9579 kPa | 920.6 ± 5.8
340.15 K, 9916 kPa | 920.3 ± 2
340.15 K, 9933 kPa | 920.3 ± 1.5
340.15 K, 9949 kPa | 920.5 ± 2
341.15 K, 10286 kPa | 920.3 ± 2
341.15 K, 10302 kPa | 920.2 ± 1.6
341.15 K, 10320 kPa | 920.4 ± 4.7
342.15 K, 10657 kPa | 920.2 ± 5.1
342.15 K, 10672 kPa | 920.1 ± 1.6
342.15 K, 10691 kPa | 920.4 ± 5.1
343.15 K, 11028 kPa | 920.1 ± 1.9
343.15 K, 11043 kPa | 920.1 ± 1.6
343.15 K, 11061 kPa | 920.3 ± 3.2
344.15 K, 11399 kPa | 920.1 ± 3.6
344.15 K, 11413 kPa | 920 ± 1.6
344.15 K, 11431 kPa | 920.2 ± 3.6
345.15 K, 6187 kPa | 774 ± 1.3
345.15 K, 11770 kPa | 920 ± 1.8
345.15 K, 11784 kPa | 919.9 ± 1.6
345.15 K, 11802 kPa | 920.1 ± 1.8
346.15 K, 6420 kPa | 774.1 ± 1.3
346.15 K, 12143 kPa | 919.9 ± 2.7
346.15 K, 12155 kPa | 919.8 ± 1.6
346.15 K, 12174 kPa | 920.1 ± 2.7
347.15 K, 6655 kPa | 774 ± 1.3
347.15 K, 6657 kPa | 773.9 ± 1.3
347.15 K, 12515 kPa | 919.8 ± 1.7
347.15 K, 12527 kPa | 919.7 ± 1.6
347.15 K, 12547 kPa | 920 ± 1.7
348.15 K, 6890 kPa | 773.9 ± 1.3
348.15 K, 6893 kPa | 773.9 ± 1.3
348.15 K, 12887 kPa | 919.8 ± 2.2
348.15 K, 12899 kPa | 919.6 ± 1.6
348.15 K, 12919 kPa | 919.9 ± 2.2
349.15 K, 7127 kPa | 773.9 ± 1.3
349.15 K, 7130 kPa | 773.8 ± 1.3
349.15 K, 13259 kPa | 919.7 ± 2.4
349.15 K, 13271 kPa | 919.6 ± 1.6
349.15 K, 13292 kPa | 919.8 ± 2.4
350.15 K, 7364 kPa | 773.8 ± 1.3
350.15 K, 7368 kPa | 773.8 ± 1.3
350.15 K, 13631 kPa | 919.6 ± 2
350.15 K, 13643 kPa | 919.5 ± 1.6
350.15 K, 13664 kPa | 919.7 ± 2
351.15 K, 7602 kPa | 773.8 ± 1.3
351.15 K, 7606 kPa | 773.7 ± 1.3
351.15 K, 14004 kPa | 919.5 ± 2.1
351.15 K, 14015 kPa | 919.4 ± 1.6
351.15 K, 14036 kPa | 919.6 ± 2.1
352.15 K, 7841 kPa | 773.7 ± 1.3
352.15 K, 7845 kPa | 773.6 ± 1.3
352.15 K, 14377 kPa | 919.4 ± 1.8
352.15 K, 14387 kPa | 919.3 ± 1.6
352.15 K, 14409 kPa | 919.6 ± 1.8
353.15 K, 8080 kPa | 773.7 ± 1.3
353.15 K, 8084 kPa | 773.6 ± 1.3
353.15 K, 14750 kPa | 919.3 ± 1.9
353.15 K, 14761 kPa | 919.2 ± 1.6
353.15 K, 14783 kPa | 919.5 ± 1.9
354.15 K, 8320 kPa | 773.6 ± 1.3
354.15 K, 8324 kPa | 773.5 ± 1.3
354.15 K, 15123 kPa | 919.2 ± 1.9
354.15 K, 15133 kPa | 919.1 ± 1.6
354.15 K, 15157 kPa | 919.4 ± 2.3
355.15 K, 8560 kPa | 773.6 ± 1.3
355.15 K, 8565 kPa | 773.5 ± 1.3
355.15 K, 15496 kPa | 919.1 ± 1.8
355.15 K, 15507 kPa | 919 ± 1.6
355.15 K, 15531 kPa | 919.3 ± 1.8
356.15 K, 8801 kPa | 773.5 ± 1.3
356.15 K, 8806 kPa | 773.4 ± 1.3
356.15 K, 15869 kPa | 919.1 ± 1.8
356.15 K, 15880 kPa | 919 ± 1.6
356.15 K, 15904 kPa | 919.2 ± 3.8
